Columns and labels:
cytochrome P450 [1] = assay: in vitro inhibition of cytochrome P450 activity; format: biochemical
cytochrome P450 [2] = assay: in vivo activity (inhibition of cytochrome P450 activity)

SMILES | inhibition of cytochrome P450 activity (cytochrome P450 [1]) | in vivo activity compared with 10-undecinyl acid (cytochrome P450 [2])
C#CCCCCCCCCC(C)(C)C(=O)O [2,2-dimethyl-11-dodecinyl acid] | comparably high inhibition | far superior in vivo
C#CCCCCCCCCC(=O)O [10-undecinyl acid] | comparably high inhibition | 
